Activity calls are given as the source filed them. How the calls were made is not given here.
Test system: CCRIS mutagenicity, Ames/micronucleus/aberration tests
Assay: CCRIS mutagenicity studies
[1] = Test System: AMES SALMONELLA TYPHIMURIUM, Strain/Indicator: TA98, Metabolic Activation: NONE, Method: STANDARD PLATE
[2] = Test System: AMES SALMONELLA TYPHIMURIUM, Strain/Indicator: TA100, Metabolic Activation: NONE, Method: STANDARD PLATE
[3] = Test System: AMES SALMONELLA TYPHIMURIUM, Strain/Indicator: TA1535, Metabolic Activation: NONE, Method: STANDARD PLATE
[4] = Test System: AMES SALMONELLA TYPHIMURIUM, Strain/Indicator: TA1537, Metabolic Activation: NONE, Method: STANDARD PLATE
[5] = Test System: AMES SALMONELLA TYPHIMURIUM, Strain/Indicator: TA1538, Metabolic Activation: NONE, Method: STANDARD PLATE
[6] = Test System: AMES SALMONELLA TYPHIMURIUM, Strain/Indicator: TA98, Metabolic Activation: RAT LIVER S-9, AROCLOR 1254, Method: STANDARD PLATE
[7] = Test System: AMES SALMONELLA TYPHIMURIUM, Strain/Indicator: TA100, Metabolic Activation: RAT LIVER S-9, AROCLOR 1254, Method: STANDARD PLATE
[8] = Test System: AMES SALMONELLA TYPHIMURIUM, Strain/Indicator: TA100, Metabolic Activation: NONE, Method: PREINCUBATION

c1ccc2c(c1)CCCC2
mutagenic call (Test System: AMES SALMONELLA TYPHIMURIUM, Strain/Indicator: TA98, Metabolic Activation: HAMSTER, LIVER, S-9, AROCLOR 1254, Method: STANDARD PLATE): inactive; negative | mutagenic call [1]: inactive; negative | mutagenic call (Test System: AMES SALMONELLA TYPHIMURIUM, Strain/Indicator: TA98, Metabolic Activation: RAT, LIVER, S-9, AROCLOR 1254, Method: STANDARD PLATE): inactive; negative | mutagenic call (Test System: AMES SALMONELLA TYPHIMURIUM, Strain/Indicator: TA100, Metabolic Activation: HAMSTER, LIVER, S-9, AROCLOR 1254, Method: STANDARD PLATE): inactive; negative | mutagenic call [2]: inactive; negative | mutagenic call (Test System: AMES SALMONELLA TYPHIMURIUM, Strain/Indicator: TA100, Metabolic Activation: RAT, LIVER, S-9, AROCLOR 1254, Method: STANDARD PLATE): inactive; negative | mutagenic call (Test System: AMES SALMONELLA TYPHIMURIUM, Strain/Indicator: TA1535, Metabolic Activation: HAMSTER, LIVER, S-9, AROCLOR 1254, Method: STANDARD PLATE): inactive; negative | mutagenic call [3]: inactive; negative | mutagenic call (Test System: AMES SALMONELLA TYPHIMURIUM, Strain/Indicator: TA1535, Metabolic Activation: RAT, LIVER, S-9, AROCLOR 1254, Method: STANDARD PLATE): inactive; negative | mutagenic call (Test System: AMES SALMONELLA TYPHIMURIUM, Strain/Indicator: TA1537, Metabolic Activation: HAMSTER, LIVER, S-9, AROCLOR 1254, Method: STANDARD PLATE): inactive; negative | mutagenic call [4]: inactive; negative | mutagenic call (Test System: AMES SALMONELLA TYPHIMURIUM, Strain/Indicator: TA1537, Metabolic Activation: RAT, LIVER, S-9, AROCLOR 1254, Method: STANDARD PLATE): inactive; negative | mutagenic call (Test System: AMES SALMONELLA TYPHIMURIUM, Strain/Indicator: TA1538, Metabolic Activation: HAMSTER, LIVER, S-9, AROCLOR 1254, Method: STANDARD PLATE): inactive; negative | mutagenic call [5]: inactive; negative | mutagenic call (Test System: AMES SALMONELLA TYPHIMURIUM, Strain/Indicator: TA1538, Metabolic Activation: RAT, LIVER, S-9, AROCLOR 1254, Method: STANDARD PLATE): inactive; negative | mutagenic call (Test System: MOUSE LYMPHOMA, Strain/Indicator: L5178Y (TK+/TK-), Metabolic Activation: RAT, LIVER, S-9, AROCLOR 1254, Method: SUSPENSION/PLATE): active; positive. reevaluation of results: equivocal

O=C1CCCc2c1ccc1c([N+](=O)[O-])c3ccccc3cc21
mutagenic call (Test System: AMES SALMONELLA TYPHIMURIUM, Strain/Indicator: TA98, Metabolic Activation: NONE): inactive; negative | mutagenic call (Test System: AMES SALMONELLA TYPHIMURIUM, Strain/Indicator: TA98, Metabolic Activation: S-9): inactive; negative | mutagenic call (Test System: AMES SALMONELLA TYPHIMURIUM, Strain/Indicator: TA100, Metabolic Activation: NONE): inactive; negative | mutagenic call (Test System: AMES SALMONELLA TYPHIMURIUM, Strain/Indicator: TA100, Metabolic Activation: S-9): inactive; negative

COC1=CC(=O)c2c(ncc3c2[nH]c2ccncc23)C1=O
mutagenic call (Test System: AMES SALMONELLA TYPHIMURIUM, Strain/Indicator: TA97A, Metabolic Activation: NONE, Method: STANDARD PLATE): active; positive | mutagenic call (Test System: AMES SALMONELLA TYPHIMURIUM, Strain/Indicator: TA97A, Metabolic Activation: RAT LIVER S-9, AROCLOR 1254, Method: STANDARD PLATE): inactive; negative | mutagenic call [1]: active; positive | mutagenic call [6]: active; positive | mutagenic call [2]: active; positive | mutagenic call [7]: active; positive | mutagenic call (Test System: AMES SALMONELLA TYPHIMURIUM, Strain/Indicator: TA102, Metabolic Activation: NONE, Method: STANDARD PLATE): active; positive | mutagenic call (Test System: AMES SALMONELLA TYPHIMURIUM, Strain/Indicator: TA102, Metabolic Activation: RAT LIVER S-9, AROCLOR 1254, Method: STANDARD PLATE): active; positive

CC12OOC1Oc1ccccc12 (configuration not stated)
mutagenic call [8]: active; positive

Cl[Si](Cl)(Cl)Cl
mutagenic call [1]: inactive; negative | mutagenic call [6]: inactive; negative | mutagenic call [2]: inactive; negative | mutagenic call [7]: inactive; negative | mutagenic call [3]: inactive; negative | mutagenic call (Test System: AMES SALMONELLA TYPHIMURIUM, Strain/Indicator: TA1535, Metabolic Activation: RAT LIVER S-9, AROCLOR 1254, Method: STANDARD PLATE): inactive; negative | mutagenic call [4]: inactive; negative | mutagenic call (Test System: AMES SALMONELLA TYPHIMURIUM, Strain/Indicator: TA1537, Metabolic Activation: RAT LIVER S-9, AROCLOR 1254, Method: STANDARD PLATE): inactive; negative | mutagenic call [5]: inactive; negative | mutagenic call (Test System: AMES SALMONELLA TYPHIMURIUM, Strain/Indicator: TA1538, Metabolic Activation: RAT LIVER S-9, AROCLOR 1254, Method: STANDARD PLATE): inactive; negative | mutagenic call (Test System: E. COLI, Strain/Indicator: P3078 POLA, Metabolic Activation: NONE, Method: SPOT TEST): inactive; negative | mutagenic call (Test System: E. COLI, Strain/Indicator: P3078 POLA, Metabolic Activation: RAT LIVER S-9, AROCLOR 1254, Method: SPOT TEST): inactive; negative | mutagenic call (Test System: E. COLI, Strain/Indicator: W3110, Metabolic Activation: NONE, Method: SPOT TEST): inactive; negative | mutagenic call (Test System: E. COLI, Strain/Indicator: W3110, Metabolic Activation: RAT LIVER S-9, AROCLOR 1254, Method: SPOT TEST): inactive; negative | mutagenic call (Test System: MOUSE LYMPHOMA, Strain/Indicator: L5178Y (TK+/TK-), Metabolic Activation: NONE, Method: SUSPENSION/PLATE): inactive; negative | mutagenic call (Test System: MOUSE LYMPHOMA, Strain/Indicator: L5178Y (TK+/TK-), Metabolic Activation: RAT, LIVER, S-9, Method: SUSPENSION/PLATE): inactive; negative

ClC(Cl)(Cl)C(Cl)(Cl)Cl
mutagenic call (End Point: IN VITRO CHROMOSOMAL ABERRATIONS, Test System: CHINESE HAMSTER OVARY CELLS, Metabolic Activation: RAT, LIVER, S-9, AROCLOR 1254): inactive; negative; precipitation occurred at all doses | mutagenic call (Test System: AMES SALMONELLA TYPHIMURIUM, Strain/Indicator: TA98, Metabolic Activation: HAMSTER, LIVER, S-9, AROCLOR 1254, Method: PREINCUBATION): inactive; negative | mutagenic call (Test System: AMES SALMONELLA TYPHIMURIUM, Strain/Indicator: TA98, Metabolic Activation: NONE, Method: PREINCUBATION): inactive; negative | mutagenic call (Test System: AMES SALMONELLA TYPHIMURIUM, Strain/Indicator: TA98, Metabolic Activation: RAT, LIVER, S-9, AROCLOR 1254, Method: PREINCUBATION): inactive; negative | mutagenic call (Test System: AMES SALMONELLA TYPHIMURIUM, Strain/Indicator: TA100, Metabolic Activation: HAMSTER, LIVER, S-9, AROCLOR 1254, Method: PREINCUBATION): inactive; negative | mutagenic call [8]: inactive; negative | mutagenic call (Test System: AMES SALMONELLA TYPHIMURIUM, Strain/Indicator: TA100, Metabolic Activation: RAT, LIVER, S-9, AROCLOR 1254, Method: PREINCUBATION): inactive; negative | mutagenic call (Test System: AMES SALMONELLA TYPHIMURIUM, Strain/Indicator: TA1535, Metabolic Activation: HAMSTER, LIVER, S-9, AROCLOR 1254, Method: PREINCUBATION): inactive; negative | mutagenic call (Test System: AMES SALMONELLA TYPHIMURIUM, Strain/Indicator: TA1535, Metabolic Activation: NONE, Method: PREINCUBATION): inactive; negative | mutagenic call (Test System: AMES SALMONELLA TYPHIMURIUM, Strain/Indicator: TA1535, Metabolic Activation: RAT, LIVER, S-9, AROCLOR 1254, Method: PREINCUBATION): inactive; negative | mutagenic call (Test System: AMES SALMONELLA TYPHIMURIUM, Strain/Indicator: TA1537, Metabolic Activation: HAMSTER, LIVER, S-9, AROCLOR 1254, Method: PREINCUBATION): inactive; negative | mutagenic call (Test System: AMES SALMONELLA TYPHIMURIUM, Strain/Indicator: TA1537, Metabolic Activation: NONE, Method: PREINCUBATION): inactive; negative | mutagenic call (Test System: AMES SALMONELLA TYPHIMURIUM, Strain/Indicator: TA1537, Metabolic Activation: RAT, LIVER, S-9, AROCLOR 1254, Method: PREINCUBATION): inactive; negative

COc1ccc2c(c1)[C@H]1CCCC[C@@H]1[C@H]1O[C@@H]21
mutagenic call [1]: inactive; negative | mutagenic call [2]: inactive; negative

COc1ccc(-c2oc3ccccc3c(=O)c2[N+](=O)[O-])cc1[N+](=O)[O-]
mutagenic call [7]: active; positive | mutagenic call (Test System: AMES SALMONELLA TYPHIMURIUM, Strain/Indicator: YG1042, Metabolic Activation: RAT LIVER S-9, AROCLOR 1254, Method: STANDARD PLATE): active; positive
